Results: publication PMC9371265 (PLoS Pathogens, 2022)

Target: T1, PrpN (Bacillus anthracis, UniProt A0A6L7HCQ6)
T1 construct: gene GBAA_0570
T1 sequence (A0A6L7HCQ6 1-234): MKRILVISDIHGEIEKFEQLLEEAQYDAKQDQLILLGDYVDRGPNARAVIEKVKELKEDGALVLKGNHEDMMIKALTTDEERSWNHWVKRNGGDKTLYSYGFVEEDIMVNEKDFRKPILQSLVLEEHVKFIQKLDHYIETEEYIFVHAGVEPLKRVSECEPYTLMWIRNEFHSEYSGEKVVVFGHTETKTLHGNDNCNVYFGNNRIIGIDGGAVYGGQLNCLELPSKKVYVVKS

With `O=[N+]([O-])c1ccc(OP(=O)(O)O)cc1` [p-nitrophenyl phosphate] the “pNPP hydrolysis, absorbance at 405 nm” value was “determined spectrophotometrically using para-nitrophenyl phosphate-pNPP (Sigma-Aldrich) as substrate”.
